The test system of one data set is native CD73, MK-1 cells. Nature of the data set: Flow cytometry binding to native CD73, MK-1 cells. As to conditions: as measured by flow cytometry; read-out: KD, CD73 on the surface of cynomolgus MK-1 cells. As for the experimental part: Binding of MEDI9447 to native CD73 expressed on human, murine, and cynomolgus monkey cell lines was characterized by flow cytometry. The cells were incubated with various concentrations of MEDI9447 and antibody binding was monitored with and fluorophore-labeled anti-human Fc antibody. A plot of the median fluorescence intensity as a function of the MEDI9447 concentration was fitted nonlinearly using a one-site binding isotherm model to calculate the equilibrium dissociation constant.
(§1) The affinity of enhanced anti-CD73 antibodies (in IgG1-TM format) to human, murine, and cynomolgus CD73 was determined by flow cytometry and surface plasmon resonsance (SPR) (Table 13). The enhanced antibodies had pM affinity to cellular and recombinant CD73 from the three species.
All flow cytometry experiments were run at 4C and reagents were prepared in PBS/1% FBS buffer. 10,000 cells were incubated with test antibody in 50 uL volume for 4 hours. Cells were washed twice and incubated in 50 uL goat anti-human IgGFc-AlexaFluor647 conjugate for 15 minutes. Cells were washed, resuspended in buffer supplemented with Dapi, and analyzed on a flow cytometer. […] For the determination of KD values, a plot of the median fluorescence intensity as a function of test antibody concentration was fitted nonlinearly using a one site binding isotherm model.

In another data set the test system is Cynomolgus CD73 ECD. Description: Surface plasmon resonance (ProteOn), cynomolgus CD73. It is filed as binding. As to conditions: SPR. As for the experimental part:
A ProteOn XPR36 instrument was used to characterize binding of MEDI9447 to human, murine, and cynomolgus CD73 ECD. MEDI9447 was affinity-captured using an anti-human Fc antibody. CD73 ECD was in the mobile phase. The association and dissociation of CD73 to MEDI9447 could be accurately described with the Langmuir 1:1 model.
as §1
Background: SPR reads the build-up and loss of mass on a sensor chip optically.

The target of a further data set is T1, huCD73 (Homo sapiens, UniProt P21589).
T1 sequence (P21589 27-549): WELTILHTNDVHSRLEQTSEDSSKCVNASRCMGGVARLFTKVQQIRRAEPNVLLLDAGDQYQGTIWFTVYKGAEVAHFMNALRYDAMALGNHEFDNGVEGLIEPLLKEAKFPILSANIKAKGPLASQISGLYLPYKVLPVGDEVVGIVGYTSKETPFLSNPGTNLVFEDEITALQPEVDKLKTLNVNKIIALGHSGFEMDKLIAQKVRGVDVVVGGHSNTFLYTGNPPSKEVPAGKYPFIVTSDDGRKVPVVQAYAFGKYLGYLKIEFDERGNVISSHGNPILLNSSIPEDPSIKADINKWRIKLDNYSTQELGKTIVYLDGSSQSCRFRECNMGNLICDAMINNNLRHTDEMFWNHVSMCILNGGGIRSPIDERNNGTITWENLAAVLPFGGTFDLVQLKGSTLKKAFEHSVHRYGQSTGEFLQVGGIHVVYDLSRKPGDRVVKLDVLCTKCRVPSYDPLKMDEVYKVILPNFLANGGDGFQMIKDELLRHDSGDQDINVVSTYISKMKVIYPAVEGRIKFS
Nature of the data set: Solution binding, human CD73. The note with it: as measured by solution binding.

For another data set, the target named is T2, murine CD73 (Mus musculus, UniProt Q61503).
T2 sequence (Q61503 29-551): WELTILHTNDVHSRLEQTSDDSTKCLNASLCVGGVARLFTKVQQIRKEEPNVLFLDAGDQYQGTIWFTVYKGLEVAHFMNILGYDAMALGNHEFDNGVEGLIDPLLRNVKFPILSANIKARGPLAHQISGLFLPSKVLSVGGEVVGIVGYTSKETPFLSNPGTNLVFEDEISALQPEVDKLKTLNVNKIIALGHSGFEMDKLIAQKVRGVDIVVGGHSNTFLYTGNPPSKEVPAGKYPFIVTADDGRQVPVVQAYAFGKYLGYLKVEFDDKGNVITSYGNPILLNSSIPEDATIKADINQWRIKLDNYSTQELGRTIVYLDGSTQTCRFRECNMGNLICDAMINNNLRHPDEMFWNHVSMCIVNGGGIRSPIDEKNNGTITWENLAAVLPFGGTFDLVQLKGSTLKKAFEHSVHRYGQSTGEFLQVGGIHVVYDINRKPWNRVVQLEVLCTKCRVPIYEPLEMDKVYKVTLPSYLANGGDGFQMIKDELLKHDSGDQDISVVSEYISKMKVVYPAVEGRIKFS
Description: Solution binding, murine CD73. The note with it: as measured by solution binding.

Data set [1] deals with T3, surface-expressed CD73, NCI-H322 cells (Homo sapiens, UniProt P21589).
T3 construct: In a cell-based assay of surface-expressed CD73; endogenous in cells; host or cells: NCI-H322
T3 sequence (P21589 27-549): T1 sequence (P21589 27-549)
Description: Cell-based inhibition of 5′ ectonucleotidase (CD73-catalyzed hydrolysis of AMP). As to conditions: CD73-expressing NSCLC cells, 200 μM AMP, 24 hours. As for the experimental part:
In this study, the functional activity of MEDI9447 was determined in an in vitro assay that measured the CD73-catalyzed hydrolysis of AMP using a human non-small cell carcinoma cell line, NCI-H322. Formulation of MEDI9447 was prepared by diluting its stock solution in serum-free RPMI medium to a final concentration of 1 μM. Formulation of R347 was prepared by diluting its stock solution in RPMI to a final concentration of 1 μM.
NCI-H322 cells were centrifuged for 5 minutes at 1500 rpm. The supernatant was removed and replaced with serum-free RPMI medium. The cell suspension was counted using the VI-CELL (Beckman, Coulter) cell counter. The cells were plated into 96-well plates at a cell density of 10,000 cells per 100 μLs per well. […], of 4× concentrated AMP (200 μM) was added. […] Cellular enzyme inhibition of 5′ ectonucleotidase was measured on a multilabel reader, the Perkin-Elmer Envision Workstation. The samples were analyzed using Prism Software.
The results depicted in FIG. 3 were obtained using CD73-expressing NSCLC cells that were plated into 96-well non-tissue culture treated plates (Falcon 3788) at 10,000 cells per well in 100 μL of RPMI medium without additives. […] CELLTITER-GLO® reagent (Promega) was added 1:1 and cellular CD73 enzyme AMP phosphorylase activity was determined by measuring ATP levels using the Envision luminescence plate reader (Perkin Elmer). […]

The source of these data is US10864269B2, “Therapeutic combinations comprising anti-CD73 antibodies and uses thereof” (MedImmune Limited, priority 2014, dated 2020).

As a reminder, the Kd is the concentration at which binding is half-saturated. For the substance “MEDI9447: IgG1 with CD730010-derived VL of SEQ ID NO: 68 and VH of SEQ ID NO: 82”, the Kd was roughly 0.08 nM with native CD73, MK-1 cells; roughly 0.08 nM in the data set with huCD73; roughly 0.13 nM with murine CD73. For the same substance, the ka in the data set with Cynomolgus CD73 ECD was 2.71e+06 M⁻¹ s⁻¹. Besides, the kd on Cynomolgus CD73 ECD came out at 1.76e-05 s⁻¹. The “conversion of adenosine monophosphate to adenosine” value in data set [1] is “reduced in a dose-dependent manner”.
